The values below come from ChEMBL document CHEMBL4665777, “Bioactive Alkaloids from the Actinomycete Actinoalloteichus sp. ZZ1866” (J Nat Prod, 2020).

Activity calls are given as the source filed them. The calls are words filed in the database; no cut-off is given here.

One assay has as its system Escherichia coli. The experiment in a line: Antimicrobial activity against Escherichia coli at 50 ug/ml after 12 hrs by microbroth dilution method. Format: functional, organism-based.
Assay [1] has as its system U-87 MG. The experiment in a line: Antiproliferative activities against human U-87 MG cells by SRB assay. It is filed as functional, cell-based, U-87MG ATCC.
The next assay relates to Candida albicans. The experiment in a line: Antimicrobial activity against Candida albicans at 50 ug/ml after 12 hrs by microbroth dilution method. It is filed as functional, organism-based.
In assay [2] the test system is U-251. The experiment in a line: Antiproliferative activities against human U-251 cells by SRB assay. It is filed as functional, cell-based.
In a further assay the test system is Staphylococcus aureus. The experiment in a line: Antimicrobial activity against methicillin-resistant Staphylococcus aureus at 50 ug/ml after 12 hrs by microbroth dilution method. It is filed as functional, organism-based.
Assay [3] relates to U-251. The experiment in a line: Antiproliferative activities against human U-251 cells at 50 uM by SRB assay. Format: functional, cell-based.
The subject of assay [4] is U-87 MG. The experiment in a line: Antiproliferative activities against human U-87 MG cells at 50 uM by SRB assay. It is filed as functional, cell-based. The conditions noted are these: u-87mg atcc.

Consider `CO[C@@]1(C)N(/C=C/c2ccccc2)C(=O)c2cc3c([nH]c4ccccc43)c(=O)n21`, for which the outcome in the assay on Escherichia coli, in the assay on Candida albicans and in the assay with Staphylococcus aureus was inactive. The IC50 with U-87 MG [1] stood at 43 µM; in the assay on U-251 [2], 36 µM.

On to `CC(=O)c1nc(C(=O)NCCc2ccccc2)cc2c3ccccc3n(C)c12`, for which the result with Escherichia coli, in the assay on Candida albicans and in the assay with Staphylococcus aureus was inactive. In addition, the results for the IC50 with U-87 MG [1] and in the assay with U-251 [2] were 7.4 µM and 12 µM, respectively.

Regarding `CO[C@@]1(C)N(/C=C/c2ccccc2)C(=O)c2cc3c4ccccc4n(C)c3c(=O)n21`, the outcome in the assay with Escherichia coli, in the assay with Candida albicans and with Staphylococcus aureus was inactive. The values for the IC50 in the assay with U-87 MG [1] and in the assay on U-251 [2] were 4.5 µM and 17 µM, respectively.

On to `CO[C@@]1(C)N(CCc2ccccc2)C(=O)c2cc3c4ccccc4n(C)c3c(=O)n21`, for which the result with Escherichia coli, in the assay on Candida albicans and in the assay on Staphylococcus aureus was inactive. In addition, the IC50 in the assay with U-87 MG [1] amounted to 8.9 µM; with U-251 [2] it was 27 µM.

For `CO[C@@]1(C)N(/C=C\c2ccccc2)C(=O)c2cc3c([nH]c4ccccc43)c(=O)n21`, the result in the assay on Escherichia coli, with Candida albicans and in the assay on Staphylococcus aureus was inactive. For the same compound, the IC50 entry with U-251 [3] and in the assay on U-87 MG [4] was “Not Active” throughout.

As to `Cn1c2ccccc2c2cc(C(=O)NCCc3ccccc3)[nH]c(=O)c21`, the outcome in the assay on Escherichia coli, in the assay with Candida albicans and in the assay with Staphylococcus aureus was inactive. The IC50 in the assay with U-87 MG [1] was found to be 11 µM; with U-251 [2] it was 13 µM.

On to `O=C(NCCc1ccccc1)c1cc2c([nH]c3ccccc32)c(=O)[nH]1`, for which the outcome in the assay on Escherichia coli, with Candida albicans and with Staphylococcus aureus was inactive. Further, the IC50 entry with U-251 [3] and in the assay on U-87 MG [4] was “Not Active” each time.

`CC(=O)c1nc(C(=O)NCCc2ccccc2)cc2c1[nH]c1ccccc12`: the result with Escherichia coli, in the assay on Candida albicans and with Staphylococcus aureus was inactive. The IC50 worked out at 13 µM in the assay on U-87 MG [1] and 12 µM in the assay on U-251 [2].

Consider `CO[C@@]1(C)N(/C=C/c2ccccc2)C(=O)C2=C[C@@]3(C(=O)N(C)c4ccccc43)C(=O)N21`, for which the result in the assay with Escherichia coli, with Candida albicans and in the assay with Staphylococcus aureus was inactive. Besides, the values for the IC50 in the assay with U-87 MG [1] and in the assay with U-251 [2] were 7.2 µM and 5.8 µM, respectively.

With `Cn1c2ccccc2c2cc3n(c(=O)c21)[C@@](C)(O)N(CCc1ccccc1)C3=O`, the result in the assay on Escherichia coli, in the assay with Candida albicans and in the assay on Staphylococcus aureus was inactive. Further, the IC50 entry in the assay with U-251 [3] and with U-87 MG [4] was “Not Active” throughout.

With `CC(=O)c1nc(C(=O)NC[C@H](O)c2ccccc2)cc2c3ccccc3n(C)c12`, the result in the assay with Escherichia coli, in the assay on Candida albicans and in the assay with Staphylococcus aureus was inactive. Moreover, the IC50 result with U-251 [3] and in the assay on U-87 MG [4] was “Not Active” throughout.

On to `CO[C@@]1(C)N(C[C@H](O)c2ccccc2)C(=O)c2cc3c4ccccc4n(C)c3c(=O)n21`, for which the result in the assay on Escherichia coli, in the assay on Candida albicans and in the assay on Staphylococcus aureus was inactive. Further, the IC50 in the assay with U-87 MG [1] amounted to 17 µM; in the assay with U-251 [2] it was 19 µM.

For `CCCCCc1[nH]c(=O)c2cnccc2c1C`, the result in the assay with Escherichia coli, in the assay with Candida albicans and with Staphylococcus aureus was inactive. For the same compound, the IC50 entry with U-251 [3] and in the assay on U-87 MG [4] was “Not Active” throughout.

On to `COc1cc(/C=N/OCCc2ccccc2)nc(-c2ccccn2)c1`, for which the result with Escherichia coli, with Candida albicans and with Staphylococcus aureus was inactive. Also, the values for the IC50 with U-87 MG [1] and with U-251 [2] were 6.5 µM and 2 µM, respectively.

Turning to `CO[C@@]1(C)N(C[C@@H](O)c2ccccc2)C(=O)c2cc3c4ccccc4n(C)c3c(=O)n21`, the result in the assay with Escherichia coli, in the assay on Candida albicans and with Staphylococcus aureus was inactive. For the same compound, the figures for the IC50 in the assay with U-87 MG [1] and in the assay on U-251 [2] were 29 µM and 36 µM, respectively.

In the case of `COc1cccc2c1C(=O)c1c(O)c3c(c(O)c1C2=O)C[C@@](O)(C(=O)CO)C[C@@H]3O[C@H]1C[C@H](N)[C@H](O)[C@H](C)O1` [DOXORUBICIN], the IC50 in the assay with U-87 MG [1] was found to be 0.6 µM; in the assay on U-251 [2] it was 3.9 µM.

Consider `CC(=O)NC[C@H](OC(=O)c1cc2c3ccccc3n(C)c2c(=O)[nH]1)c1ccccc1`, for which the outcome in the assay with Escherichia coli, in the assay on Candida albicans and in the assay on Staphylococcus aureus was inactive. The results for the IC50 in the assay with U-87 MG [1] and in the assay on U-251 [2] were 19 µM and 15 µM, respectively.

On to `CO[C@@]1(C)N(/C=C\c2ccccc2)C(=O)c2cc3c4ccccc4n(C)c3c(=O)n21`, for which the result with Escherichia coli, in the assay on Candida albicans and in the assay on Staphylococcus aureus was inactive. Besides, the IC50 worked out at 2.3 µM in the assay on U-87 MG [1] and 12 µM in the assay on U-251 [2].
